Test results reported in ChEMBL document CHEMBL1817596, “Synthesis of a hypoxia-targeted conjugate of the cardioprotective agent 3',4'-dihydroxyflavonol and evaluation of its ability to reduce ischaemia/reperfusion injury” (Bioorg Med Chem Lett, 2011).
The source made the active and inactive calls. The calls are words filed in the database; no cut-off is given here.

Assays:
[1] = Drug uptake in rat Con8 cells assessed as compound level in supernatant under normoxic condition at 10^-5 M after 3 hrs by HPLC analysis; type: ADME, cell-based; details: con8, 3 h, 10 µM
[2] = Drug uptake in rat Con8 cells assessed as compound level in supernatant under hypoxic condition at 10^-5 M after 3 hrs by HPLC analysis; type: ADME, cell-based; details: con8, 3 h, 10 µM
[3] = Drug uptake in rat Con8 cells assessed as compound level in cell lysate under normoxic condition at 10^-5 M after 3 hrs by HPLC analysis; type: ADME, cell-based; details: con8, 3 h, 10 µM
[4] = Drug uptake in rat Con8 cells assessed as compound level in cell lysate under hypoxic condition at 10^-5 M after 3 hrs by HPLC analysis; type: ADME, cell-based; details: con8, 3 h, 10 µM
Aorta [5] = experiment: Vasorelaxant activity in Sprague-Dawley rat thoracic aortic rings assessed as inhibition of phenylephrine-induced contraction at 10^-5 M after 20 mins; type: functional, tissue-based
Aorta [6] = experiment: Vasorelaxant activity in phenylephrine and KPSS-precontracted Sprague-Dawley rat thoracic aortic rings at 10^-10 to 10^-4 M measured after 20 mins; type: functional, tissue-based
Rattus norvegicus [7] = experiment: Cardioprotection activity in ischemia/reperfusion-induced Sprague-Dawley rat hindquarters assessed as reduction in circulating LDH level at 5 mg/kg, bolus dose administered 5 mins prior to reperfusion measured 2 hrs after reperfusion by UV-VIS spectrophotometry; type: functional, organism-based; set-up: dose 5 mg/kg
Rattus norvegicus [8] = experiment: Cardioprotection activity in ischemia/reperfusion-induced in Sprague-Dawley rat hindquarters assessed as reduction in MPO level at 5 mg/kg, bolus dose administered 5 mins prior to reperfusion by spectrophotometric analysis relative to control; type: functional, organism-based; set-up: dose 5 mg/kg
Rattus norvegicus [9] = experiment: Cardioprotection activity in ischemia/reperfusion-induced Sprague-Dawley rat hindquarters assessed as reduction in circulating LDH level at 5 mg/kg, bolus dose administered 5 mins prior to reperfusion measured 3 hrs after reperfusion by UV-VIS spectrophotometry; type: functional, organism-based; set-up: dose 5 mg/kg
Aorta [10] = experiment: Antioxidant activity in Sprague-Dawley rat thoracic aortic rings assessed as inhibition of NADPH-activated superoxide formation at 10^-6 to 10^-4 M by lucigenin-enhanced chemiluminescence assay; type: functional, tissue-based
Aorta [11] = experiment: Inhibition of acetylcholine-induced relaxation Sprague-Dawley rat thoracic aortic rings at 10^-5 M after 20 mins in presence of superoxide generator pyrogallol; type: functional; set-up: scale not given: the % may be the effect or the level left
Rattus norvegicus [12] = experiment: Cardioprotection activity in ischemia/reperfusion-induced Sprague-Dawley rat hindquarters assessed as reduction in circulating LDH level at 8.6 mg/kg, bolus dose administered 5 mins prior to reperfusion measured 30 mins to 3 hrs after reperfusion by UV-VIS spectrophotometry; type: functional, organism-based; set-up: dose 8.6 mg/kg
Rattus norvegicus [13] = experiment: Cardioprotection activity in ischemia/reperfusion-induced in Sprague-Dawley rat hindquarters assessed as reduction in MPO level at 8.6 mg/kg, bolus dose administered 5 mins prior to reperfusion by spectrophotometry relative to control; type: functional, organism-based; set-up: dose 8.6 mg/kg

Drug uptake [1] | Drug uptake [2] | Drug uptake [3] | Drug uptake [4] | EC50 (Aorta [6]) | Compound | Activity (Aorta [5]) | Activity (Rattus norvegicus [7]) | Activity (Rattus norvegicus [8]) | Activity (Rattus norvegicus [9]) | Activity (Aorta [6]) | Activity (Aorta [10]) | Activity (Aorta [11]) | Activity (Rattus norvegicus [12]) | Activity (Rattus norvegicus [13])
Active | Active | Active | Active | 4.68 µM | O=c1c(O)c(-c2ccc(O)c(O)c2)oc2ccccc12 | Active | Active | inactive | Active |  |  |  |  | 
Active | Active | Active | Active |  | O=c1c(O)c(-c2ccc(O)c(O)c2)oc2ccc(-n3cc(Cn4ccnc4[N+](=O)[O-])nn3)cc12 | inactive |  |  |  | inactive | Active | 50% | Active | Active
